Measurements: US20120115845A1, “THERAPEUTIC AGENTS” (priority 2007, published 2012)

Tests used:
[1] = target: T1, human GHS receptor (Homo sapiens, UniProt Q92847); assay: h bind IC50 (binding assay, Table 1); conditions: human receptor; Table 1
[2] = target: T1, human GHS receptor; assay: Ghrelin IP1 agonist assay (IP1 HTRF); format: cell-based; set-up: expressed in transfected cells; host or cells: HEK293s; conditions: for Emax: 2 h, agonist effect as % maximal effect of GHRP-6 (5 μM), read-out: h IP1 ag %; for EC50: HEK293s cells stably expressing human GHS receptor, 2 hours at 37° C., read-out: h IP1 ag EC50
In short: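 Cells: HEK293s stably expressing human GHS receptor, in stimulation buffer containing 0.02% fatty acid free BSA.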

T1 sequence (Q92847 whole entry): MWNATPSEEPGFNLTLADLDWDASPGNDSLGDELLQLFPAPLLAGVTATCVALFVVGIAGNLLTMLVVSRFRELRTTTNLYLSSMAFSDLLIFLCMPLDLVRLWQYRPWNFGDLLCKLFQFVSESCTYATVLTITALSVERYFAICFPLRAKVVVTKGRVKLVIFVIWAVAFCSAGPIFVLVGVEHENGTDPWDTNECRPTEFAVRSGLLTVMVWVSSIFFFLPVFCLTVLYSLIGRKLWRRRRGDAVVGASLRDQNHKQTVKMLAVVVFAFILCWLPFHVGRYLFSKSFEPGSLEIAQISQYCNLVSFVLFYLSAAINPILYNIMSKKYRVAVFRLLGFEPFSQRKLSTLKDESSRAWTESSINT

Compound | IC50 [1] [nM] | Emax [2] [%] | EC50 [2] [nM]
CCN1CC(S(=O)(=O)c2ccc3nc(NC(=O)NC(=O)c4ccccc4Cl)sc3c2)C1 [Example 185, 2-Chloro-N-[[6-(1-ethylazetidin-3-yl)sulfonylbenzothiazol-2-yl]carbamoyl]benzamide] | 66.9 | 39.7 | 69.2
C#Cc1ccc(Cl)c(C(=O)NC(=O)Nc2nc3ccc(S(C)(=O)=O)cc3s2)c1 [Example 61, 2-Chloro-5-ethynyl-N-(6-(methylsulfonyl)benzothiazol-2-ylcarbamoyl)benzamide] | 161 | 0.276 | > 25000
O=C(NC(=O)c1ccccc1Cl)Nc1nc2ccc(S(=O)(=O)CCNC3CCCC3)cc2s1 [Example 17, 2-Chloro-N-[[6-[2-(cyclopentylamino)ethylsulfonyl]benzothiazol-2-yl]carbamoyl]benzamide] | 80.4 | 42.1 | 6.03
CN1CCCC(S(=O)(=O)c2ccc3nc(NC(=O)NC(=O)c4ccccc4Cl)sc3c2)C1 (stereo not drawn) [Example 166, 2-Chloro-N-[[6-[(1-methyl-3-piperidyl)sulfonyl]benzothiazol-2-yl]carbamoyl]benzamide] | 280 | 53.9 | 46.4
CN(C)CCOc1ccc(Cl)c(C(=O)NC(=O)Nc2nc3ccc(S(C)(=O)=O)cc3s2)c1 [Example 63, 2-Chloro-5-(2-(dimethylamino)ethoxy)-N-(6-(methylsulfonyl)benzothiazol-2-ylcarbamoyl)benzamide] | 2770 | 31.8 | 61.4
CS(=O)(=O)c1ccc2nc(NC(=O)NC(=O)c3ccccc3I)sc2c1 [Example 118, 2-Iodo-N-[(6-methylsulfonylbenzothiazol-2-yl)carbamoyl]benzamide] | 464 | 9.59 | 114
CS(=O)(=O)c1ccc2nc(NC(=O)NC(=O)c3ccccc3OS(=O)(=O)C(F)(F)F)sc2c1 [Example 137, N-[(6-Methylsulfonylbenzothiazol-2-yl)carbamoyl]-2-(trifluoromethylsulfonyloxy)benzamide] | 1750 | 24.1 | 2320
Cc1cc(CS(=O)(=O)c2ccc3nc(NC(=O)NC(=O)c4ccccc4Cl)sc3c2)no1 [Example 188, 2-Chloro-N-[[6-[(5-methyl-1,2-oxazol-3-yl)methylsulfonyl]benzothiazol-2-yl]carbamoyl]benzamide] | 53.8 | 16.4 | 52.1
CS(=O)(=O)c1ccc2nc(NC(=O)NC(=O)c3cc(-n4cccc4)ccc3Cl)sc2c1 [Example 66, 2-Chloro-N-[(6-methylsulfonylbenzothiazol-2-yl)carbamoyl]-5-pyrrol-1-yl-benzamide] | 23.1 | 0 | ≥ 25000
CS(=O)(=O)c1ccc2nc(NC(=O)NC(=O)c3ccccc3-c3ccccc3)sc2c1 [Example 105, N-[(6-Methylsulfonylbenzothiazol-2-yl)carbamoyl]-2-phenyl-benzamide] | 215 | 39.4 | 98.6
CS(=O)(=O)c1ccc2nc(NC(=O)NC(=O)c3cc(OC4CCCC4)ccc3Cl)sc2c1 [Example 51, 2-Chloro-5-cyclopentyloxy-N-(6-(methylsulfonyl)benzothiazol-2-ylcarbamoyl)benzamide] | 14.2 | 1 | 16
CC(C)N1CCC[C@@H]1CS(=O)(=O)c1ccc2nc(NC(=O)NC(=O)c3ccccc3Cl)sc2c1 [Example 168, 2-Chloro-N-[[6-[[(2R)-1-propan-2-ylpyrrolidin-2-yl]methylsulfonyl]benzothiazol-2-yl]carbamoyl]benzamide] | 20.6 | 37 | 4.13
CNC1CC(S(=O)(=O)c2ccc3nc(NC(=O)NC(=O)c4ccccc4Cl)sc3c2)C1 (stereo not drawn) [Example 215, 2-Chloro-N-[[6-(3-methylaminocyclobutyl)sulfonylbenzothiazol-2-yl]carbamoyl]benzamide] | 27.2 | 50.2 | 23
CN(C)c1cccc(-c2ccc(Cl)c(C(=O)NC(=O)Nc3nc4ccc(S(C)(=O)=O)cc4s3)c2)n1 [Example 251, 2-chloro-5-(6-(dirnethylamino)pyridin-2-yl)-N-(6-(methylsulfonyl)benzo[d]thiazol-2-ylcarbamoyl) benzamide] | 34.4 | 0 | ≥ 20000
O=C(NC(=O)c1ccccc1Cl)Nc1nc2ccc(S(=O)(=O)CCCn3ccnc3)cc2s1 [Example 193, 2-Chloro-N-[[6-(3-imidazol-1-ylpropylsulfonyl)benzothiazol-2-yl]carbamoyl]benzamide] | 25.9 | 30.6 | 18.5
O=C(NC(=O)c1ccccc1Cl)Nc1nc2ccc(S(=O)(=O)CCN3CCCOCC3)cc2s1 [Example 30, 2-Chloro-N-[[6-[2-(1,4-oxazepan-4-yl)ethylsulfonyl]benzothiazol-2-yl]carbamoyl]benzamide] | 251 | 23.8 | 39.2
CC(C)(C)OC(=O)N1CCC(CCS(=O)(=O)c2ccc3nc(NC(=O)NC(=O)c4ccccc4Cl)sc3c2)CC1 [Example 218, tert-Butyl 4-[2-[2-[(2-chlorobenzoyl)carbamoylamino]benzothiazol-6-yl]sulfonylethyl]piperidine-1-carboxylate] | 22.3 | 39.2 | 18.5
O=C(NC(=O)c1ccccc1Cl)Nc1nc2ccc(S(=O)(=O)CCN3CCC3)cc2s1 [Example 13, N-[[6-[2-(Azetidin-1-yl)ethylsulfonyl]benzothiazol-2-yl]carbamoyl]-2-chloro-benzamide] | 162 | 52.5 | 55.5
COc1ccc(-c2ccccc2C(=O)NC(=O)Nc2nc3ccc(S(C)(=O)=O)cc3s2)cc1 [Example 124, 2-(4-Methoxyphenyl)-N-[(6-methylsulfonylbenzothiazol-2-yl)carbamoyl]benzamide] | 135 | 54.5 | 524

Now those with a lower IC50 [1], led by results:

IC50 [1] [nM] | Emax [2] [%] | EC50 [2] [nM] | Compound
1.5 | 79.4 | 0.934 | C[C@@H]1CN(CCCS(=O)(=O)c2ccc3nc(NC(=O)NC(=O)c4ccccc4Cl)sc3c2)C[C@H](C)N1 [Example 196, 2-Chloro-N-[[6-[3-[(3S,5R)-3,5-dimethylpiperazin-1-yl]propylsulfonyl]benzothiazol-2-yl]carbamoyl]benzamide]
1.2 | 55.2 | 2.25 | CN1CCN(CCCS(=O)(=O)c2ccc3nc(NC(=O)NC(=O)c4ccccc4Cl)sc3c2)CC1 [Example 155, 2-Chloro-N-[[6-[3-(4-methylpiperazin-1-yl)propylsulfonyl]benzothiazol-2-yl]carbamoyl]benzamide]
1 | 0 | ≥ 25000 | CS(=O)(=O)c1ccc2nc(NC(=O)NC(=O)c3cc(N4CC=CC4)ccc3Cl)sc2c1 [Example 50, 2-Chloro-5-(2,5-dihydro-pyrrol-1-yl)-N-(6-(methylsulfonyl)benzothiazol-2-ylcarbamoyl)benzamide]
10.7 | 9.48 | 1160 | CN1CCN(CCCS(=O)(=O)c2ccc3nc(NC(=O)NC(=O)c4cc(-n5cncn5)ccc4Cl)sc3c2)CC1 [Example 95, 2-Chloro-N-(6-(3-(4-methylpiperazin-1-yl)propylsulfonyl)benzothiazol-2-ylcarbamoyl)-5-(1H-1,2,4-triazol-1-yl)benzamide]
0.93 | 0 | ≥ 20000 | CCOc1cc(Cl)c(C(=O)NC(=O)Nc2nc3ccc(S(=O)(=O)C4CCN(C)CC4)cc3s2)cc1-n1cccn1 [Example 261, 2-chloro-4-ethoxy-N-(6-(1-methylpiperidin-4-ylsulfonyl)benzo [d]thiazol-2-ylcarbamoyl)-5-(1H-pyrazol-1-yl)benzamide]
8.5 | 51.6 | 17.6 | O=C(NC(=O)c1ccccc1Cl)Nc1nc2ccc(S(=O)(=O)CCCNCCO)cc2s1 [Example 159, 2-Chloro-N-[[6-[3-(2-hydroxyethylamino)propylsulfonyl]benzothiazol-2-yl]carbamoyl]benzamide]
2.9 | 13.1 | 432 | CN1CCN(CCCS(=O)(=O)c2ccc3nc(NC(=O)NC(=O)c4cc(-c5cncs5)ccc4Cl)sc3c2)CC1 [Example 96, 2-Chloro-N-(6-(3-(4-methylpiperazin-1-yl)propylsulfonyl)benzothiazol-2-ylcarbamoyl)-5-(thiazol-5-yl)benzamide]
8.83 | 80.9 | 28.1 | CN1CCN(CCCS(=O)(=O)c2ccc3nc(NC(=O)NC(=O)c4cccc(-n5cccn5)c4Cl)sc3c2)CC1 [Example 240, 2-chloro-N-(6-(3-(4-methylpiperazin-1-yl)propylsulfonyl)benzo[d]thiazol-2-ylcarbamoyl)-3-(1H-pyrazol-1-yl)benzamide]
10.1 | 0.0527 | ≥ 25000 | CS(=O)(=O)c1ccc2nc(NC(=O)NC(=O)c3cc(N4CCOCC4)ccc3Cl)sc2c1 [Example 54, 2-Chloro-N-(6-(methylsulfonyl)benzothiazol-2-ylcarbamoyl)-5-morpholin-4-yl benzamide]
1.7 | 3.9 | 30.1 | CCOc1ccc(Cl)c(C(=O)NC(=O)Nc2nc3ccc(S(=O)(=O)CCCN4CCN(C)CC4)cc3s2)c1 [Example 93, 2-Chloro-5-ethoxy-N-(6-(3-(4-methylpiperazin-1-yl)propylsulfonyl)benzothiazol-2-ylcarbamoyl)benzamide]
2.2 | 42.2 | 1.82 | CC(C)N1CCN(CCCS(=O)(=O)c2ccc3nc(NC(=O)NC(=O)c4ccccc4Cl)sc3c2)CC1 [Example 199, 2-Chloro-N-[[6-[3-(4-propan-2-ylpiperazin-1-yl)propylsulfonyl]benzothiazol-2-yl]carbamoyl]benzamide]
